Test results: PubChem BioAssay AID179 (DTP/NCI, 2004)
The source made the active and inactive calls.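 Rule for the calls: active = compounds giving half or more protection of infected cells from virus-caused growth loss, again on retest; inactive = the rest.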

Tested on: CEM cells HIV-1 protection, formazan growth assay
Experiment: NCI AIDS Antiviral Assay
Details: for IC50: measured here: growth of uninfected CEM cells
Summary of the method: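 Steps: treat uninfected and HIV-1-infected human CEM cells at five drug levels; quantify growth by soluble formazan; retest any compound reaching 50% protection; classify actives from the retest.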

Row | SMILES | EC50 [µM] | IC50 [µM] | outcome
1 | CCOC(=O)C1(c2ccccc2)CCNC(=O)CC1 (centres undefined) | > 955 | > 955 | –
2 | COC1CC(O)C2OC(c3ccccc3)OCC2O1 (centres undefined) | – | – | inactive
3 | CCCCCCCCCCCCCCCC=C(c1cc(Br)c(O)c(C(=O)O)c1)c1cc(Br)c(O)c(C(=O)O)c1 | > 112 | 53.7 | –
4 | C=CCC1(O)CC(n2cc(C)c(=O)[nH]c2=O)OC1CO[Si](C)(C)C(C)(C)C (centres undefined) | > 200 | 91.2 | –
5 | O=C1/C(=C/c2ccc(OCc3ccccc3)cc2)CCC/C1=C\c1ccc(OCc2ccccc2)cc1 | > 2.95 | > 2.95 | –
6 | N#CC(C#N)=Cn1c(=S)[nH]c2ccc([N+](=O)[O-])cc21 | > 200 | 89.1 | –
7 | O=C(CCCl)NNC1=NCCCN1 | > 200 | > 200 | –
8 | Cc1c([O-])c([O-])c(C)c2c1OCO2.[C-]#[O+].[C-]#[O+].[C-]#[O+].[C-]#[O+].[Re] | > 200 | 31.6 | –
9 | COc1ccc(NC(=O)/C(CC2=Nc3ccc([N+](=O)[O-])cc3NC2O)=N\NC(=O)C[N+](C)(C)C)c(OC)c1 (centres undefined) | > 45.7 | > 45.7 | –
10 | FC1C2=C(SC1(F)F)C1CCC2C1 (centres undefined) | > 200 | > 200 | –
11 | COc1ccc(C2c3cc4c(cc3OC(N3CCOCC3)C2C)OCO4)cc1 (centres undefined) | > 200 | 53.7 | –
12 | CN1Cc2ccccc2S(=O)(=O)n2cccc2C1=O | > 200 | > 200 | –
13 | O=C(Nc1ccc(/C=C/c2ccc(NC(=O)c3ccc(N=Nc4cc(S(=O)(=O)O)c5cccnc5c4O)cc3)cc2S(=O)(=O)O)c(S(=O)(=O)O)c1)c1ccc(N=Nc2cc(S(=O)(=O)O)c3cccnc3c2O)cc1 | 17.8 | > 100 | –
14 | CC(C)N(C(=O)C12C3C4C5C3C1(C(=O)N(C(C)C)C(C)C)C5(C#N)C42)C(C)C (centres undefined) | > 93.3 | > 93.3 | –
15 | CS(=O)(=O)CCOC(=O)ON1C(=O)CCC1=O | > 200 | 26.9 | –
16 | CN1C(C)(c2ccccc2)c2ccccc2S1(=O)=O (centres undefined) | 3.89 | 85.1 | –
17 | CCCCCCC(/C=N/O)C(C)(O)CCC (centres undefined) | > 112 | > 112 | –
18 | COc1ccccc1C(=O)N(Cc1ccccc1)c1ccc(Cl)c(C(=O)OC(C)C)c1 | > 19.5 | 15.5 | –
19 | CO/C(N)=C(\C#N)N=Cc1ccccc1 | > 200 | 105 | –
20 | O=C(NCCCl)Nc1ccccn1 | > 200 | > 200 | –
21 | CCSc1[nH]c(NC(=NC(C)C)NC(=O)c2ccccc2)c(C(N)=O)c1C(N)=O | – | – | inactive

Row | SMILES | EC50 [µM] | IC50 [µM] | outcome
22 | COC(=O)/C(=C\Nc1cccc(C)n1)S(=O)(=O)c1ccc(C)cc1 | > 200 | 66.1 | –
23 | COC(=O)c1c(C)cccc1C1CN=NC12Cc1ccc(C)c(C)c1C2=O (centres undefined) | > 200 | 15.1 | –
24 | CN(C)c1ccc(/C=C2\C=Cc3ccccc32)cc1 | – | – | inactive
25 | CCOC(=O)Cc1csc(/N=C\c2c(O)c3ccccc3oc2=O)n1 | > 200 | 40.7 | –
26 | CCO/C=N/C1=C(C#N)C(c2ccc(OC)c(OC)c2)c2c(-c3ccccc3)nn(-c3ccccc3)c2O1 (centres undefined) | > 100 | 14.1 | –
27 | c1ccc2c(c1)cc1n2CCc2c-1[nH]c1ccccc21 | > 200 | > 200 | –
28 | CN/N=C(/Cc1occc(=O)c1O)C(=O)Nc1ccccc1C | > 794 | 724 | –
29 | O=C(NCCN(CCNC(=O)c1cccc(=O)n1O)CCNC(=O)c1cccc(=O)n1O)c1cccc(=O)n1O | > 200 | > 200 | –
30 | CCOC(=O)c1nc2cc(C(F)(F)F)ccc2nc1Nc1ccc(C(=O)OC)s1 | > 50.1 | 30.9 | –
31 | C#C[C@@]1(O)CCCC2=CC(=O)C[C@]21C | – | – | inactive
32 | COc1nc2nc(C(O)C(O)CO)cnc2c(=O)n1C (centres undefined) | > 891 | > 891 | inactive
33 | Nc1ccn(C2CC3OCC3O2)c(=O)n1 (centres undefined) | > 200 | > 200 | –
34 | COc1ccccc1OCC(Cn1c(=O)nc(-c2ccccc2)c2cc(Cl)ccc21)OC(N)=O (centres undefined) | > 28.2 | > 28.2 | –
35 | COc1cccc(/C=C/C(=O)c2sc(C(N)=S)nc2C)c1O | > 11.2 | > 11.2 | –
36 | CCOP(=O)(OCC)/C(C#N)=C/c1cccn1CC(C)C | 60.3 | 123 | –
37 | CC1=CC(=O)Nc2ccccc2S1 | > 234 | 85.1 | –
38 | COc1cc2c(cc1O)[C@H](C)C(c1ccccc1OC)O2 (some centres undefined) | > 66.1 | 3.98 | –
39 | Oc1c(C2=NNC(c3cccs3)C2)ccc2ccccc12 (centres undefined) | > 200 | 33.1 | –
40 | CCOC(=O)C(F)(F)C(=O)OCC | > 200 | > 200 | –
41 | Nc1[nH]c(=S)nc2snnc12 | > 200 | > 200 | –
